Laboratory results published in patent US10494377B1, “Bergenin lipoic acid ester with antioxidant activity and a method of preparing the same” (SHAANXI UNIVERSITY OF SCIENCE AND TECHNOLOGY, priority 2018, dated 2019).

Experiments:
[1] = DPPH radical scavenging activity assay; type: biochemical; settings: for DPPH clearance rate: n = 3, 30 min, 517 nm; for scavenging effect on DPPH (in words): FIG. 1, 7.02-7020 ppm
From the text: The Antioxidant Activity of Bergenin Lipoic Acid Ester Measured by a DPPH Radical Scavenging Activity Assay
2,2-Diphenyl-1-picryl hydrazyl (DPPH) is an organic compound composed of a stable organic radical. In the DPPH molecule, due to the presence of multiple electron-withdrawing —NO2 and large π bonds of the benzene ring, nitrogen free radical is stabilized. Its methanol solution is purple and has a maximum absorption peak at 517 nm. After the addition of an antioxidant, DPPH captures an electron to be paired with the free electron, and the purple fades and turns into a yellow substance. The absorption at 517 nm disappears, and the degree of fading is quantitatively related to the number of electrons it captures. Based on this principle, a spectrophotometer is used to detect the change of the absorbance of the DPPH radical in the sample solution, and the ability of the sample to provide hydrogen atoms and scavenge free radicals can be measured.
Preparation of DPPH solution: measuring exact amount of 2,2-diphenyl-1-picryl hydrazyl (DPPH) and dissolving in methanol to prepare a 0.2 mmol/L DPPH solution, stored at 0° C. in dark.
Preparation of test solutions: Vc (vitamin C, positive control), bergenin lipoic acid ester (sample), bergenin (control), lipoic acid (control), and mixture of bergenin and lipoic acid (reference). The test solutions were serially diluted with acetonitrile, and four groups of controls were separately dissolved in a test tube with a certain amount of methanol to prepare the same concentration gradient as the sample.
Absorbance measurement: Take 2 mL of sample solution (Table 1, number B), add 2 mL of DPPH solution with concentration of 2*10^−4 moL/L, mix and react in the dark at room temperature for 30 min, adjust to zero with methanol, and measure at 517 nm. The absorbance Ai was simultaneously measured for the absorbance Aj of 2 mL of methanol mixed with 2 mL of the sample solution and the absorbance Ao of 2 mL of DPPH solution mixed with 2 mL of acetonitrile (The experimental results are shown in Table 2).
Clearance calculation: clearance rate (%) [1−(Ai−Aj)/Ao]*100%

[2] = Takahashi et al. 2003; cited from earlier work
[3] = Takahashi et al. 2003; cited from earlier work; remark: listed apart in the source

Structure (SMILES) | DPPH clearance rate ([1]; 7.02 ppm) | DPPH clearance rate ([1]; 140.4 ppm) | DPPH clearance rate ([1]; 702 ppm) | DPPH clearance rate ([1]; 2808 ppm) | DPPH clearance rate ([1]; 7020 ppm) | scavenging effect on DPPH (in words) [1] | scavenging effect on DPPH (in words) ([1]; listed as bergenin lipoic acid ester) | scavenging ability compared with Vc (in words) ([1]; concentration above 2808 ppm) | scavenging effect on superoxide anions (in words) [2] | scavenging effect on DPPH free radicals (in words) [3]
COc1c(O)cc2c(c1O)C1OC(COC(=O)CCCCC3CCSS3)C(O)C(O)C1OC2=O (stereo not shown) [B, Bergenin lipoic acid ester] | 27.56% | 60.83% | 76.34% | 94.92% | 97.64% | better than E | significant scavenging effect on DPPH in a concentration-dependent manner | close to the scavenging ability of Vc | – | –
COc1c(O)cc2c(c1O)[C@@H]1O[C@H](CO)[C@@H](O)[C@H](O)[C@H]1OC2=O [C, Bergenin] | 15.57% | 19.79% | 30.98% | 54.56% | 90.01% | – | – | – | good scavenging effect | good scavenging effect
O=C(O)CCCCC1CCSS1 (stereo not shown) [D, Lipoic acid] | 20.40% | 28.64% | 39.66% | 60.54% | 82.95% | – | – | – | – | –
O=C1O[C@H]([C@@H](O)CO)C(O)=C1O [Vc, Vitamin C] | 82.01% | 95.17% | 95.70% | 99.90% | 99.90% | – | – | – | – | –
